Assay results from patent US20120295920A1, “5-AMINO-4-HYDROXYPENTOYL AMIDES” (priority 2009, published 2012).
Where two headings read alike, the source gives them in different places.

Columns and labels:
HIV-1 wild-type strain = assay: General antiviral assay, cell-based virus replication in MT4-LTR-EGFP cells, wild-type strain; details: wild-type strain IIIB, MT4-LTR-EGFP cells
Method: (§1) MT4-LTR-EGFP cells were obtained by transfecting MT4 cells with a selectable construct encompassing the sequences coding for the HIV long terminal repeat (LTR) as a promoter for the expression of enhanced green fluorescent protein (EGFP) and subsequent selection of permanently transfected cells.
(§2) The antiviral activity on different HIV-1 strains, was determined in a cell-based virus replication assay. Here MT4-LTR-EGFP cells (150,000 cells/ml) are infected (multiplicity of infection [MOI] of 0.0025) in the presence or absence of different inhibitor concentrations. Two methodologies for read-out were used, either quantification of GFP-fluoresence on day 3 post-infection, or quantification of cell-viability using rezazurin (as described by Fields, R. D., and M. V. Lancaster (1993) Am. Biotechnol. Lab. 11:48-50) on day 4 post infection.

HIV-1 IIIB = assay: 50% HS-Rezazurin: antiviral assay in the presence of 50% human serum, MT-4 cells, resazurin cell viability; type: cell-based
Method: For the Antiviral assay in the presence of 50% human serum MT-4 cells were infected with HIV-1 IIIB at a MOI of 0.001 to 0.01 CCID50/cell in RPMI1640 medium. Following 1 h of incubation, cells were washed and plated into a 96-well plate containing serial dilutions of compound in the presence of 10% fetal calf serum (FCS), or 50% human serum. After 4 days incubation, the EC50 in the presence of 50% human serum was determined by a cell viability assay using resazurin.
The last column lists the results for the wild-type strain IIB in the presence of 50% human serum MT-4 cells.

mock-infected MT4 cells = assay: General toxicity assay on mock-infected MT4 cells with CMV-EGFP reporter (CC50); type: cell-based
[1] = tested on: HIV-1 Strain C (G048G/V, V082A); assay: microbe, parasite or virus in culture; type: cell-based; details: clinical isolate Strain C; read-out: C EC50
Method: as §1, §2
(§3) In the following Table, Strains A, B, and C are clinical isolates that include the following protease inhibitor resistance mutations in the protease domain (background mutations are not mentioned).

[2] = tested on: HIV-1 Strain B (M046I, I050V); assay: microbe, parasite or virus in culture; type: cell-based; details: clinical isolate Strain B; read-out: B EC50
Method: as §1, §2, §3

[3] = tested on: HIV-1 Strain A (M046I, I084V); assay: microbe, parasite or virus in culture; type: cell-based; details: clinical isolate Strain A; read-out: A EC50
Method: as §1, §2, §3

[4] = MT4LTR cells, read-out: TOX-MT4LTR (CC50)
[5] = mock-infected MT4 cells with CMV-EGFP reporter, read-out: TOX-MT4CMV (CC50)

COC(=O)N[C@H](C(=O)N[C@@H](Cc1ccc(-c2ccc(OC)nc2)cc1)[C@@H](O)C[C@@H](Cc1cccc(OC(F)(F)F)c1)C(=O)N[C@H]1c2ccccc2OC[C@H]1O)C(C)(C)C [Compound 41]
EC50 (HIV-1 wild-type strain): 3 nM
EC50 (HIV-1 IIIB): 10.5 nM
CC50 (mock-infected MT4 cells; [4]): > 32 µM
CC50 (mock-infected MT4 cells; [5]): > 32 µM
EC50 [1]: 1.1 nM
EC50 [2]: 1.2 nM
EC50 [3]: 2.4 nM

COC(=O)NC(C(=O)NC(Cc1ccc(-c2ccc(OC)nc2)cc1)C(O)CC(Cc1ccccc1F)C(=O)NC1c2cc(Cl)ccc2OCC1O)C(C)(C)C (centres unmarked) [Compound 18]
EC50 (HIV-1 wild-type strain): 2.7 nM
EC50 (HIV-1 IIIB): 14 nM
CC50 (mock-infected MT4 cells; [4]): > 32 µM
CC50 (mock-infected MT4 cells; [5]): > 32 µM
EC50 [1]: 1.6 nM
EC50 [2]: 2 nM
EC50 [3]: 3 nM

CN(C)c1ccc(-c2ccc(C[C@H](NC(=O)O[C@H]3CO[C@H]4OCC[C@H]43)[C@@H](O)C[C@@H](Cc3ccccc3F)C(=O)N[C@H]3c4cc(F)ccc4OC[C@H]3O)cc2)cn1 [Compound 68]
EC50 (HIV-1 wild-type strain): 3 nM
EC50 (HIV-1 IIIB): 9.4 nM
CC50 (mock-infected MT4 cells; [5]): > 32 µM
EC50 [1]: 1.3 nM
EC50 [2]: 1.5 nM
EC50 [3]: 2.2 nM

COC(=O)NC(C(=O)NC(Cc1ccc(-c2ccc(N(C)C)nc2)cc1)C(O)CC(Cc1cccc(Cl)c1)C(=O)NC1c2ccccc2OCC1O)C(C)(C)C (centres unmarked) [Compound 2]
EC50 (HIV-1 wild-type strain): 3 nM
EC50 (HIV-1 IIIB): 19.7 nM
CC50 (mock-infected MT4 cells; [5]): > 32 µM
EC50 [1]: 1.1 nM
EC50 [2]: 2.2 nM
EC50 [3]: 3.3 nM

COC(=O)NC(C(=O)NC(Cc1ccc(-c2ccc(OC)nc2)cc1)C(O)CC(Cc1ccccc1F)C(=O)NC1c2cc(F)cc(C)c2OCC1O)C(C)(C)C (centres unmarked) [Compound 102]
EC50 (HIV-1 wild-type strain): 2.3 nM
EC50 (HIV-1 IIIB): 6.8 nM
CC50 (mock-infected MT4 cells; [4]): > 32 µM
EC50 [1]: 1.5 nM
EC50 [2]: 3.3 nM
EC50 [3]: 5.4 nM

COC(=O)N[C@H](C(=O)N[C@@H](Cc1ccc(-c2cnc(N(C)C)nc2)cc1)[C@@H](O)C[C@@H](Cc1cccc(F)c1)C(=O)N[C@H]1c2cc(F)ccc2OC[C@H]1O)C(C)(C)C [Compound 62]
EC50 (HIV-1 wild-type strain): 3.2 nM
EC50 (HIV-1 IIIB): 16.3 nM
CC50 (mock-infected MT4 cells; [4]): > 32 µM
EC50 [1]: 0.9 nM
EC50 [2]: 1.5 nM
EC50 [3]: 2.2 nM

CN(C)c1ccc(-c2ccc(C[C@H](NC(=O)[C@@H](NC(=O)C3(C#N)CC3)C(C)(C)C)[C@@H](O)C[C@@H](Cc3ccccc3F)C(=O)N[C@H]3c4cc(F)ccc4OC[C@H]3O)cc2)cn1 [Compound 35]
EC50 (HIV-1 wild-type strain): 2.1 nM
EC50 (HIV-1 IIIB): 8.4 nM
CC50 (mock-infected MT4 cells; [4]): > 32 µM
CC50 (mock-infected MT4 cells; read-out: TOX-MT4CMV (CC50)): > 32 µM
EC50 [1]: 2 nM
EC50 [2]: 2.2 nM
EC50 [3]: 4 nM

Cc1cccc(C)c1OCC(=O)N[C@@H](Cc1ccccc1)[C@@H](O)C[C@H](Cc1ccccc1)NC(=O)[C@H](C(C)C)N1CCCNC1=O [LPV]
EC50 (HIV-1 wild-type strain): 13 nM
EC50 (HIV-1 IIIB): 61 nM
CC50 (mock-infected MT4 cells; [4]): > 32 µM
CC50 (mock-infected MT4 cells; [5]): 20 µM
EC50 [1]: 31 nM
EC50 [2]: 320 nM
EC50 [3]: 110 nM

COC(=O)N[C@H](C(=O)N[C@@H](Cc1ccc(-c2ccc(OC)nc2)cc1)[C@@H](O)C[C@@H](Cc1cccc(F)c1)C(=O)N[C@H]1c2cc(Cl)ccc2OC[C@H]1O)C(C)(C)C [Compound 39]
EC50 (HIV-1 wild-type strain): 3 nM
EC50 (HIV-1 IIIB): 16.4 nM
CC50 (mock-infected MT4 cells; [4]): > 32 µM
CC50 (mock-infected MT4 cells; [5]): > 32 µM
EC50 [1]: 1.3 nM
EC50 [2]: 2.1 nM
EC50 [3]: 3.9 nM

COC(=O)NC(C(=O)NC(Cc1ccc(-c2ccc(N(C)C)nc2)cc1)C(O)CC(Cc1ccccc1F)C(=O)NC1c2cc(F)cc(F)c2OCC1O)C(C)(C)C (centres unmarked) [Compound 10]
EC50 (HIV-1 wild-type strain): 3.2 nM
EC50 (HIV-1 IIIB): 20.1 nM
CC50 (mock-infected MT4 cells; [5]): > 32 µM
EC50 [1]: 1.7 nM
EC50 [2]: 2.5 nM
EC50 [3]: 4 nM

COC(=O)NC(C(=O)NC(Cc1ccc(-c2ccc(OC)nc2)cc1)C(O)CC(Cc1cccc(Cl)c1)C(=O)NC1c2ccccc2OCC1O)C(C)(C)C (centres unmarked) [Compound 3]
EC50 (HIV-1 wild-type strain): 2.6 nM
EC50 (HIV-1 IIIB): 13.6 nM
CC50 (mock-infected MT4 cells; [5]): > 32 µM
EC50 [1]: 2.4 nM
EC50 [2]: 3.5 nM
EC50 [3]: 2.3 nM

COC(=O)N[C@H](C(=O)N[C@@H](Cc1ccc(-c2ccc(OC)nc2)cc1)[C@@H](O)C[C@@H](Cc1ccccc1Cl)C(=O)N[C@H]1[C@H](C)CCC[C@H]1O)C(C)(C)C [Compound 91]
EC50 (HIV-1 wild-type strain): 1.1 nM
EC50 (HIV-1 IIIB): 3.2 nM
CC50 (mock-infected MT4 cells; [4]): 16 µM
CC50 (mock-infected MT4 cells; [5]): 17 µM
EC50 [1]: 1 nM
EC50 [2]: 0.7 nM
EC50 [3]: 2.6 nM

COC(=O)N[C@H](C(=O)N[C@@H](Cc1ccc(-c2ccc(N(C)C)nc2)cc1)[C@@H](O)C[C@@H](Cc1cccc(F)c1)C(=O)N[C@H]1c2ccccc2OC[C@H]1O)C(C)(C)C [Compound 36]
EC50 (HIV-1 wild-type strain): 2.9 nM
EC50 (HIV-1 IIIB): 14.3 nM
CC50 (mock-infected MT4 cells; [4]): > 32 µM
CC50 (mock-infected MT4 cells; [5]): > 32 µM
EC50 [1]: 1.3 nM
EC50 [2]: 1.4 nM
EC50 [3]: 2.4 nM

COc1ccc(-c2ccc(C[C@H](NC(=O)O[C@H]3CO[C@H]4OCC[C@H]43)[C@@H](O)C[C@@H](Cc3ccccc3F)C(=O)N[C@H]3c4ccsc4CC[C@H]3O)cc2)cn1 [Compound 74]
EC50 (HIV-1 wild-type strain): 0.9 nM
EC50 (HIV-1 IIIB): 3.5 nM
CC50 (mock-infected MT4 cells; [4]): > 32 µM
EC50 [1]: 0.4 nM
EC50 [2]: 0.6 nM
EC50 [3]: 0.8 nM

Cc1cc(-c2ccc(C[C@H](NC(=O)O[C@H]3CO[C@H]4OCC[C@H]43)[C@@H](O)C[C@@H](Cc3ccccc3F)C(=O)N[C@H]3c4cc(Cl)ccc4OC[C@H]3O)cc2)cc(C)n1 [Compound 76]
EC50 (HIV-1 wild-type strain): 2.9 nM
EC50 (HIV-1 IIIB): 20.5 nM
CC50 (mock-infected MT4 cells; [4]): > 32 µM
EC50 [1]: 1.1 nM
EC50 [2]: 1.5 nM
EC50 [3]: 1.7 nM

COc1ccc(-c2ccc(C[C@H](NC(=O)O[C@H]3CO[C@H]4OCC[C@H]43)[C@@H](O)C[C@@H](Cc3ccccc3F)C(=O)N[C@H]3c4cc(Cl)cc(F)c4OC[C@H]3O)cc2)cn1 [Compound 81]
EC50 (HIV-1 wild-type strain): 4.1 nM
EC50 (HIV-1 IIIB): 13.4 nM
CC50 (mock-infected MT4 cells; [4]): > 32 µM
EC50 [1]: 1.3 nM
EC50 [2]: 2.4 nM
EC50 [3]: 2.8 nM

COCCNC(=O)[C@@H](NC(=O)[C@H](Cc1cccc(F)c1)C[C@H](O)[C@H](Cc1ccc(-c2ccc(OC)nc2)cc1)NC(=O)[C@@H](NC(=O)OC)C(C)(C)C)C(C)(C)C [Compound 92]
EC50 (HIV-1 wild-type strain): 2.6 nM
EC50 (HIV-1 IIIB): 8.4 nM
CC50 (mock-infected MT4 cells; [4]): > 32 µM
CC50 (mock-infected MT4 cells; [5]): > 32 µM
EC50 [1]: 2.9 nM
EC50 [2]: 1.8 nM
EC50 [3]: 4.2 nM

COC(=O)NC(C(=O)NC(Cc1ccc(-c2ccc(OC)nc2)cc1)C(O)CC(Cc1ccccc1F)C(=O)NC1c2cc(C)cc(F)c2OCC1O)C(C)(C)C (centres unmarked) [Compound 101]
EC50 (HIV-1 wild-type strain): 2.8 nM
EC50 (HIV-1 IIIB): 9.8 nM
CC50 (mock-infected MT4 cells; [4]): > 32 µM
EC50 [1]: 1.7 nM
EC50 [2]: 2.4 nM
EC50 [3]: 2.5 nM

COC(=O)N[C@H](C(=O)N[C@@H](Cc1ccc(-c2cnc(N(C)C)nc2)cc1)[C@@H](O)C[C@@H](Cc1ccccc1F)C(=O)N[C@H]1c2cc(Cl)ccc2OC[C@H]1O)C(C)(C)C [Compound 43]
EC50 (HIV-1 wild-type strain): 2 nM
EC50 (HIV-1 IIIB): 10.6 nM
CC50 (mock-infected MT4 cells; [4]): > 32 µM
EC50 [1]: 1.1 nM
EC50 [2]: 1 nM
EC50 [3]: 1.7 nM

CN(C)c1ccc(-c2ccc(CC(NC(=O)C(NC(=O)CN3CCCC3)C(C)(C)C)C(O)CC(Cc3ccccc3F)C(=O)NC3c4cc(Cl)ccc4OCC3O)cc2)cn1 (centres unmarked) [Compound 19]
EC50 (HIV-1 wild-type strain): 5.3 nM
EC50 (HIV-1 IIIB): 22.1 nM
CC50 (mock-infected MT4 cells; [5]): > 27 µM
EC50 [1]: 1.8 nM
EC50 [2]: 2.4 nM
EC50 [3]: 3.7 nM

COC(=O)N[C@H](C(=O)N[C@@H](Cc1ccc(-c2ccc(OC)nc2)cc1)[C@@H](O)C[C@@H](Cc1ccccc1F)C(=O)N[C@H]1c2cc(F)cc(Cl)c2OC[C@H]1O)C(C)(C)C [Compound 56]
EC50 (HIV-1 wild-type strain): 2.6 nM
EC50 (HIV-1 IIIB): 8.4 nM
CC50 (mock-infected MT4 cells; [4]): > 32 µM
EC50 [1]: 0.7 nM
EC50 [2]: 1.2 nM
EC50 [3]: 1.4 nM
